The values that follow come from patent EP3243509A1, “OROBUCCAL ABSORPTION COMPOSITION FOR NEURO-PROTECTION” (priority 2016, dated 2017).

Assay [1] relates to multiple sclerosis (MS). Conditions: part intravenously, part per os; Hartstein and Ulett 1957; cited from earlier work.
The subject of assay [2] is rat model with Alzheimer disease. Conditions: Salkovic-Petrisic et al. 2014; cited from earlier work.
For assay [3], the system named is open-angle acute primary glaucoma. The experiment in a line: Clinical Case Report 2. The format is in vivo, patient. As to conditions: ophthalmic treatment for IOP, after 4 months of treatment.

For the compound `O=C[C@H](O)[C@@H](O)[C@@H](O)[C@H](O)CO` [D-galactose], the “symptoms of the disease” value in assay [1] was “improved the symptoms of the disease”. Further, the “effect of the oral treatment (learning capacity and memory)” value in assay [2] is “beneficial effect”.
Regarding `CC(C)NCC(O)COc1ccc(CCOCC2CC2)cc1` (stereo not drawn) [beta-toxolol, betaxolol], the “field of vision and acuity” value in assay [3] is on record as “not improved”.
